Experimental data reported in ChEMBL document CHEMBL3407338, “Synthesis and structure-activity relationship of novel 1,4-diazabicyclo[2.2.2]octane derivatives as potent antimicrobial agents” (Eur J Med Chem, 2015).

Tests used:
Format in all cases: functional
Salmonella enterica = test: Antimicrobial activity against Salmonella enterica ATCC 14028 at 0.1 ug/ml after 24 hrs by agar diffusion method; details: ATCC 14028, 24 h, read-out: DIZ
Bacillus subtilis = test: Antimicrobial activity against Bacillus subtilis ATCC 6633 at 0.1 ug/ml after 24 hrs by agar diffusion method; details: ATCC 6633, 24 h, read-out: DIZ
Escherichia coli = test: Antimicrobial activity against Escherichia coli ATCC 25922 at 0.1 ug/ml after 24 hrs by agar diffusion method; details: ATCC 25922, 24 h, read-out: DIZ
Staphylococcus aureus = test: Antimicrobial activity against Staphylococcus aureus ATCC 25923 at 0.1 ug/ml after 24 hrs by agar diffusion method; details: ATCC 25923, 24 h, read-out: DIZ
Candida albicans = test: Antimicrobial activity against Candida albicans ATCC 32354 at 0.1 ug/ml after 24 hrs by agar diffusion method; details: ATCC 32354, 24 h, read-out: DIZ
Pseudomonas aeruginosa = test: Antimicrobial activity against Pseudomonas aeruginosa ATCC 9027 at 0.1 ug/ml after 24 hrs by agar diffusion method; details: ATCC 9027, 24 h, read-out: DIZ

Measured: zone of inhibition at 0.1 µg/mL

CCCCCCCCCCCCCCCC[N+]12CC[N+](CCCCC[N+]34CC[N+](CCCCCCCCCCCCCCCC)(CC3)CC4)(CC1)CC2
0 mm: all assays above

CCCCCCCCCCCCCCCCCC[N+]12CC[N+](CCCCC[N+]34CC[N+](CCCCCCCCCCCCCCCCCC)(CC3)CC4)(CC1)CC2
0 mm: all assays above

CCCCCCCCCCCCCCC[N+]12CC[N+](CCCCC[N+]34CC[N+](CCCCCCCCCCCCCCC)(CC3)CC4)(CC1)CC2
0 mm: all assays above
